Data published in patent publication US20230158157A1, “POTENT AND SELECTIVE DEGRADERS OF ALK” (DANA-FARBER CANCER INSTITUTE, INC., priority 2020, published 2023).
Where two headings read alike, the source gives them in different places.

Assays:
EML4-ALK = biological target: T1, EML4-ALK (Homo sapiens, UniProt Q9UM73); assay: EML4-ALK HiBit degradation assay in CRISPR-tagged H3122 cells (Nano-Glo HiBit Lytic Detection); assay type: cell-based
T1 construct: endogenous in cells; host or cells: H3122 (NSCLC), single-cell clone after CRISPR knock-in of HiBit; the other entry of the earlier key: EML4 (Q9HC35, Echinoderm microtubule-associated protein-like 4)
T1 sequence (Q9UM73 with tags, fused parts or gaps): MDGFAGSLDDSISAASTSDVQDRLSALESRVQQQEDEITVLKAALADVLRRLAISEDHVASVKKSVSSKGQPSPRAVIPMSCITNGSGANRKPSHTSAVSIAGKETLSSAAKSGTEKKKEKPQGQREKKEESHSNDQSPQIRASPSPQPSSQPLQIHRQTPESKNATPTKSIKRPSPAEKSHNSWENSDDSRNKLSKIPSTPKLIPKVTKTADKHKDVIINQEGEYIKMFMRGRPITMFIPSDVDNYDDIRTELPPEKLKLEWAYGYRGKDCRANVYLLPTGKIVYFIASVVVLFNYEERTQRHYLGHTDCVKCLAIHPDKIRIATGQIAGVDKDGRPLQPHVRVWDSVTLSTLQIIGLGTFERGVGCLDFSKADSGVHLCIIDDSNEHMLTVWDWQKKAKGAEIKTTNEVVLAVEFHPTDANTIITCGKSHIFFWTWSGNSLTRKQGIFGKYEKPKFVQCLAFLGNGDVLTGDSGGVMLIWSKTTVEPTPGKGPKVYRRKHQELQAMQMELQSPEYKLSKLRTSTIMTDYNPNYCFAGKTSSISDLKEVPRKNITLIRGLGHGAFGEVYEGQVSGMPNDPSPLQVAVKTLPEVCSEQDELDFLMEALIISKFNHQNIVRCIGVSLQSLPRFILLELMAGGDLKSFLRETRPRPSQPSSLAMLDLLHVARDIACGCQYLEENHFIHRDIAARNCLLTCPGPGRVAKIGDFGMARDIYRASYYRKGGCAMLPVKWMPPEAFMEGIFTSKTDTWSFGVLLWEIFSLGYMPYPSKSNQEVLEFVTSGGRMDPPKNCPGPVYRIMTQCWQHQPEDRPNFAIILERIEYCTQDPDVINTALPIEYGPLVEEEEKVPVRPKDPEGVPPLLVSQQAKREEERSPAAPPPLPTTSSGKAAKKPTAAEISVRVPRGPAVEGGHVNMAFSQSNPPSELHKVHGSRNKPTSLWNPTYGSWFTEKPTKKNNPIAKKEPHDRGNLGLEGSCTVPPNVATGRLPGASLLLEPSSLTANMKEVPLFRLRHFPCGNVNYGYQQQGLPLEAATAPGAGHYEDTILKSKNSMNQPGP
Experimental: (§1) NSCLC cell line H3122 was subjected to CRISPR to express EML4-ALK with HiBit-tag on its c-terminal. Single-cell clone was selected and expanded for the following assays that monitor endogenous EML4-ALK level in high throughput manner. Cells were seeded in 384-well white Tissue-culture plates at 3000 cells/well for 8 hours. […] HiBit signal was assessed using Nano-Glo® HiBit Lytic Detection System (Promega™). Degrader-treated was normalized by DMSO-treated controls and DC50 and Dmax were generated by GraphPad Prism® 8.0.
as §1, with “its c-terminus. A single-cell” for “its c-terminal. Single-cell”, “Degrader-treated cells were” for “Degrader-treated was”
as §1, with “its C-terminus. A single-cell” for “its c-terminal. Single-cell”, “Degrader-treated cells were” for “Degrader-treated was”

H3122 cells = assay: CTG; assay type: cell-based; details: Homo sapiens, NCI-H3122, read-out: CTG IC50
[1] = NCI-H3122, Table 1, first Dmax column, H3122 EML4-ALK-HiBit, 16 hours, read-out: Degradation Dmax
[2] = NCI-H3122, Table 1, second Dmax column, H3122 EML4-ALK-HiBit, 16 hours, read-out: Degradation Dmax
[3] = NCI-H3122, Table 1, average Dmax, read-out: Degradation Avg. Dmax
[4] = Table 1, first DC50 column, H3122 EML4-ALK-HiBit, 16 hours, read-out: Degradation DC50
[5] = Table 1, second DC50 column, H3122 EML4-ALK-HiBit, 16 hours, read-out: Degradation DC50
[6] = Table 1, average DC50, read-out: Degradation Avg. DC50
[7] = NCI-H3122, Table 2, first Dmax column, H3122 EML4-ALK-HiBit, 16 hours, read-out: Degradation Dmax
[8] = NCI-H3122, Table 2, second Dmax column, H3122 EML4-ALK-HiBit, 16 hours, read-out: Degradation Dmax
[9] = NCI-H3122, Table 2, average Dmax, read-out: Degradation Avg. Dmax
[10] = Table 2, first DC50 column, H3122 EML4-ALK-HiBit, 16 hours, read-out: Degradation DC50
[11] = Table 2, second DC50 column, H3122 EML4-ALK-HiBit, 16 hours, read-out: Degradation DC50
[12] = Table 2, average DC50, read-out: Degradation Avg. DC50

Dmax (EML4-ALK; [1]) [%]	Dmax (EML4-ALK; [2]) [%]	Dmax (EML4-ALK; [3]) [%]	DC50 (EML4-ALK; [4]) [nM]	DC50 (EML4-ALK; [5]) [nM]	DC50 (EML4-ALK; [6]) [nM]	IC50 (H3122 cells; Table 1) [nM]	Dmax (EML4-ALK; [7]) [%]	Dmax (EML4-ALK; [8]) [%]	Dmax (EML4-ALK; [9]) [%]	DC50 (EML4-ALK; [10]) [nM]	DC50 (EML4-ALK; [11]) [nM]	DC50 (EML4-ALK; [12]) [nM]	IC50 (H3122 cells; Table 2) [nM]	Compound
50.8	44.8	47.8	91	36	63	15.7	–	–	–	–	–	–	–	COc1cc(CCN(C)C(=O)CCCCCCCCNC(=O)COc2cccc3c2C(=O)N(C2CCC(=O)NC2=O)C3=O)c(C)cc1Nc1ncc(Cl)c(Nc2ccccc2S(=O)(=O)C(C)C)n1 (centres unmarked) [compound 7, N-(4-((5-chloro-4-((2-(isopropylsulfonyl)phenyl)amino)pyrimidin-2-yl)amino)-5-methoxy-2-methylphenethyl)-9-(2-((2-(2,6-dioxopiperidin-3-yl)-1,3-dioxoisoindolin-4-yl)oxy)acetamido)-N-methylnonanamide]
68.4	68.2	–	67	57	62	73.6	–	–	–	–	–	–	–	COc1cc(CCN(C)CCCCCOc2cc(-c3scnc3C)ccc2[C@H](C)NC(=O)[C@@H]2C[C@@H](O)CN2C(=O)[C@@H](NC(C)=O)C(C)(C)C)c(C)cc1Nc1ncc(Cl)c(Nc2ccccc2S(=O)(=O)C(C)C)n1 [Compound 54]
44.5	–	44.5	239	–	–	149	–	–	–	–	–	–	–	COc1cc(CCN(C)C(=O)CCCNC(=O)COc2cccc3c2C(=O)N(C2CCC(=O)NC2=O)C3=O)c(C)cc1Nc1ncc(Cl)c(Nc2ccccc2S(=O)(=O)C(C)C)n1 (centres unmarked) [compound 5, N-(4-((5-chloro-4-((2-(isopropylsulfonyl)phenyl)amino)pyrimidin-2-yl)amino)-5-methoxy-2-methylphenethyl)-4-(2-((2-(2,6-dioxopiperidin-3-yl)-1,3-dioxoisoindolin-4-yl)oxy)acetamido)-N-methylbutanamide]
–	–	–	–	–	–	–	59.6	62	60.8	3270	1180	2230	788	COc1cc(CCNCCCCCSC(C)(C)C(NC(C)=O)C(=O)N2C[C@H](O)C[C@H]2C(=O)N[C@@H](C)c2ccc(-c3scnc3C)cc2)c(C)cc1Nc1ncc(Cl)c(Nc2ccccc2P(C)(C)=O)n1 (some centres unmarked) [Compound 73]
68.6	41.6	55.1	392	145	269	149	–	–	–	–	–	–	–	COc1cc(CCN(C)C(=O)CCCCCCC(=O)N[C@H](C(=O)N2C[C@H](O)C[C@H]2C(=O)N[C@@H](C)c2ccc(-c3scnc3C)cc2)C(C)(C)C)c(C)cc1Nc1ncc(Cl)c(Nc2ccccc2S(=O)(=O)C(C)C)n1 [compound 40, N^1-(4-((5-chloro-4-((2-(isopropylsulfonyl)phenyl)amino)pyrimidin-2-yl)amino)-5-methoxy-2-methylphenethyl)-N^8-((S)-1-((2S,4R)-4-hydroxy-2-(((S)-1-(4-(4-methylthiazol-5-yl)phenyl)ethyl)carbamoyl)pyrrolidin-1-yl)-3,3-dimethyl-1-oxobutan-2-yl)-N^1-methyloctanediamide]
54.1	–	54.1	265	–	265	122	–	–	–	–	–	–	–	COc1cc(CCN(C)C(=O)CCCC#Cc2cccc3c2C(=O)N(C2CCC(=O)NC2=O)C3=O)c(C)cc1Nc1ncc(Cl)c(Nc2ccccc2S(=O)(=O)C(C)C)n1 (centres unmarked) [compound 9, N-(4-((5-chloro-4-((2-(isopropylsulfonyl)phenyl)amino)pyrimidin-2-yl)amino)-5-methoxy-2-methylphenethyl)-6-(2-(2,6-dioxopiperidin-3-yl)-1,3-dioxoisoindolin-4-yl)-N-methylhex-5-ynamide]
44.3	–	44.8	171	–	171	75	–	–	–	–	–	–	–	COc1cc(CCN(C)C(=O)CCOCCOCCNC(=O)COc2cccc3c2C(=O)N(C2CCC(=O)NC2=O)C3=O)c(C)cc1Nc1ncc(Cl)c(Nc2ccccc2S(=O)(=O)C(C)C)n1 (centres unmarked) [compound 8, N-(4-((5-chloro-4-((2-(isopropylsulfonyl)phenyl)amino)pyrimidin-2-yl)amino)-5-methoxy-2-methylphenethyl)-3-(2-(2-(2-((2-(2,6-dioxopiperidin-3-yl)-1,3-dioxoisoindolin-4-yl)oxy)acetamido)ethoxy)ethoxy)-N-methylpropanamide]
43.4	–	43.4	203	–	203	125	–	–	–	–	–	–	–	COc1cc(CCN(C)C(=O)CCCCCC#Cc2cccc3c2C(=O)N(C2CCC(=O)NC2=O)C3=O)c(C)cc1Nc1ncc(Cl)c(Nc2ccccc2S(=O)(=O)C(C)C)n1 (centres unmarked) [compound 10, N-(4-((5-chloro-4-((2-(isopropylsulfonyl)phenyl)amino)pyrimidin-2-yl)amino)-5-methoxy-2-methylphenethyl)-8-(2-(2,6-dioxopiperidin-3-yl)-1,3-dioxoisoindolin-4-yl)-N-methyloct-7-ynamide]
–	38.4	–	–	346	–	136	–	–	–	–	–	–	–	COc1cc(CCN(C)C(=O)CCCCCCCCNc2cccc3c2C(=O)N(C2CCC(=O)NC2=O)C3=O)c(C)cc1Nc1ncc(Cl)c(Nc2ccccc2S(=O)(=O)C(C)C)n1 (centres unmarked) [compound 3, N-(4-((5-chloro-4-((2-(isopropylsulfonyl)phenyl)amino)pyrimidin-2-yl)amino)-5-methoxy-2-methylphenethyl)-9-((2-(2,6-dioxopiperidin-3-yl)-1,3-dioxoisoindolin-4-yl)amino)-N-methylnonanamide]
–	–	–	–	–	–	–	37.9	37.9	37.9	8820	3590	6200	2950	COc1cc(CCNCCCC(=O)N[C@H](C(=O)N2C[C@H](O)C[C@H]2C(=O)N[C@@H](C)c2ccc(-c3scnc3C)cc2)C(C)(C)C)c(C)cc1Nc1ncc(Cl)c(Nc2ccccc2P(C)(C)=O)n1 [Compound 72]
24.1	–	31.4	67	46	57	76.9	–	–	–	–	–	–	–	COc1cc(CCN(C)C(=O)CCCCCNc2cccc3c2C(=O)N(C2CCC(=O)NC2=O)C3=O)c(C)cc1Nc1ncc(Cl)c(Nc2ccccc2S(=O)(=O)C(C)C)n1 (centres unmarked) [compound 2, N-(4-((5-chloro-4-((2-(isopropylsulfonyl)phenyl)amino)pyrimidin-2-yl)amino)-5-methoxy-2-methylphenethyl)-6-((2-(2,6-dioxopiperidin-3-yl)-1,3-dioxoisoindolin-4-yl)amino)-N-methylhexanamide]
53	–	53	1250	–	1250	252	–	–	–	–	–	–	–	COc1cc(CCNCCCCCC(=O)N[C@H](C(=O)N2C[C@H](O)C[C@H]2C(=O)N[C@@H](C)c2ccc(-c3scnc3C)cc2)C(C)(C)C)c(C)cc1Nc1ncc(Cl)c(Nc2ccccc2S(=O)(=O)C(C)C)n1 [Compound 44]
–	–	–	–	–	–	–	23.6	49.3	36.5	1730	670	1200	1630	COc1cc(CCN(C)C(=O)CCCCCCCCNc2cccc3c2C(=O)N(C2CCC(=O)NC2=O)C3=O)c(C)cc1Nc1ncc(Cl)c(Nc2ccccc2P(C)(C)=O)n1 (centres unmarked) [Compound 66]
